According to patent US20130281467A1, “NOVEL MICROBICIDES” (SYNGENTA PARTICIPATIONS AG, priority 2010, published 2013):

Assays:
[1] = system: Botryotinia fuckeliana (Botrytis cinerea); assay: Fungicidal activity against Botryotinia fuckeliana (Botrytis cinerea) / liquid culture (gray mould); type: cell-based; conditions: 3-4 days after application, read-out: disease control (inhibition of growth, photometrically)
Description: (§1) Fungicidal Activity Against Botryotinia fuckeliana (Botrytis cinerea)/Liquid Culture (Gray Mould) Conidia of the fungus from cryogenic storage were directly mixed into nutrient broth (Vogels broth). After placing a (DMSO) solution of test compound into a microtiter plate (96-well format), the nutrient broth containing the fungal spores was added. The test plates were incubated at 24° C. and the inhibition of growth was determined photometrically 3-4 days after application.

[2] = system: Monographella nivalis (Microdochium nivale); assay: Fungicidal activity against Monographella nivalis (Microdochium nivale) / liquid culture (foot rot cereals); type: cell-based; conditions: 4-5 days after application, read-out: disease control (inhibition of growth, photometrically)
Description: as §1, with “Monographella nivalis (Microdochium nivale)/Liquid” for “Botryotinia fuckeliana (Botrytis cinerea)/Liquid”, “(Foot Rot Cereals)” for “(Gray Mould)”, “(PDB potato dextrose” for “(Vogels”, “4-5” for “3-4”

[3] = system: Mycosphaerella graminicola (Septoria tritici); assay: Fungicidal activity against Mycosphaerella graminicola (Septoria tritici) / liquid culture (Septoria blotch); type: cell-based; conditions: Zymoseptoria tritici, 4-5 days after application, read-out: disease control (inhibition of growth, photometrically)
Description: as §1, with “Mycosphaerella graminicola (Septoria tritici)/Liquid” for “Botryotinia fuckeliana (Botrytis cinerea)/Liquid”, “(Septoria Blotch)” for “(Gray Mould)”, “(PDB potato dextrose” for “(Vogels”, “4-5” for “3-4”

[4] = system: Mycosphaerella arachidis (Cercospora arachidicola); assay: Fungicidal activity against Mycosphaerella arachidis (Cercospora arachidicola) / liquid culture (early leaf spot); type: cell-based; conditions: 4-5 days after application, read-out: disease control (inhibition of growth, photometrically)
Description: as §1, with “Mycosphaerella arachidis (Cercospora arachidicola)/Liquid” for “Botryotinia fuckeliana (Botrytis cinerea)/Liquid”, “(Early Leaf Spot)” for “(Gray Mould)”, “(PDB potato dextrose” for “(Vogels”, “4-5” for “3-4”

[5] = system: Glomerella lagenarium (Colletotrichum lagenarium); assay: Fungicidal activity against Glomerella lagenarium (Colletotrichum lagenarium) / liquid culture (anthracnose); type: cell-based; conditions: Colletotrichum orbiculare, 3-4 days after application, read-out: disease control (inhibition of growth, photometrically)
Description: as §1, with “Glomerella lagenarium (Colletotrichum lagenarium)/Liquid” for “Botryotinia fuckeliana (Botrytis cinerea)/Liquid”, “(Anthracnose)” for “(Gray Mould)”, “(PDB potato dextrose” for “(Vogels”, “measured” for “determined”

Gaeumannomyces graminis = assay: Fungicidal activity against Gaeumannomyces graminis / liquid culture (take-all of cereals); type: cell-based; conditions: 4-5 days after application, read-out: disease control (inhibition of growth, photometrically)
Description: Fungicidal Activity Against Gaeumannomyces graminis/Liquid Culture (Take-all of Cereals) Mycelial fragments of the fungus from cryogenic storage were directly mixed into nutrient broth (PDB potato dextrose broth). After placing a (DMSO) solution of test compound into a microtiter plate (96-well format), the nutrient broth containing the fungal spores iss added. The test plates were incubated at 24° C. and the inhibition of growth was determined photometrically 4-5 days after application.

[6] = system: Puccinia recondita f. sp. tritici; assay: Fungicidal activity against Puccinia recondita f. sp. tritici / wheat / leaf disc preventative (brown rust); type: in vivo; conditions: foliar, wheat leaf segments, inoculated 1 day after application, compared to untreated, read-out: disease control
Description: Fungicidal Activity Against Puccinia recondita f. sp. tritici/Wheat/Leaf Disc Preventative (Brown Rust) Wheat leaf segments cv. Kanzler were placed on agar in multiwell plates (24-well format) and sprayed with the formulated test compound diluted in water. The leaf disks were inoculated with a spore suspension of the fungus 1 day after application. The inoculated leaf segments were incubated at 19° C. and 75% rh under a light regime of 12 h light/12 h darkness in a climate cabinet and the activity of a compound was assessed as percent disease control compared to untreated when an appropriate level of disease damage appears in untreated check leaf segments (7-9 days after application).

[7] = system: Thanatephorus cucumeris (Rhizoctonia solani); assay: Fungicidal activity against Thanatephorus cucumeris (Rhizoctonia solani) / liquid culture (foot rot, damping-off); type: cell-based; conditions: 3-4 days after application, read-out: disease control (inhibition of growth, photometrically)
Description: Fungicidal Activity Against Thanatephorus cucumeris (Rhizoctonia solani)/Liquid Culture (Foot Rot, Damping-Off) Mycelia fragments of a newly grown liquid culture of the fungus were directly mixed into nutrient broth (PDB potato dextrose broth). After placing a (DMSO) solution of the test compounds into a microtiter plate (96-well format), the nutrient broth containing the fungal material was added. The test plates were incubated at 24° C. and the inhibition of growth was determined photometrically 3-4 days after application.

[8] = system: Phaeosphaeria nodorum (Septoria nodorum); assay: Fungicidal activity against Phaeosphaeria nodorum (Septoria nodorum) / wheat / leaf disc preventative (glume blotch); type: in vivo; conditions: Parastagonospora nodorum, foliar, wheat leaf segments, inoculated 2 days after application, compared to untreated, read-out: disease control
Description: Fungicidal Activity Against Phaeosphaeria nodorum (Septoria nodorum)/Wheat/Leaf Disc Preventative (Glume Blotch) Wheat leaf segments cv. Kanzler were placed on agar in a multiwell plate (24-well format) and sprayed with the formulated test compound diluted in water. The leaf disks were inoculated with a spore suspension of the fungus 2 days after application. The inoculated test leaf disks were incubated at 20° C. and 75% rh under a light regime of 12 h light/12 h darkness in a climate cabinet and the activity of a compound was assessed as percent disease control compared to untreated when an appropriate level of disease damage appears in untreated check leaf disks (5-7 days after application).

Pyrenophora teres = assay: Fungicidal activity against Pyrenophora teres / barley / leaf disc preventative (net blotch); type: in vivo; conditions: foliar, barley leaf segments, inoculated 2 days after application, compared to untreated, read-out: disease control
Description: Fungicidal Activity Against Pyrenophora teres/Barley/Leaf Disc Preventative (Net Blotch) Barley leaf segments cv. Hasso were placed on agar in a multiwell plate (24-well format) and sprayed with the formulated test compound diluted in water. The leaf segments were inoculated with a spore suspension of the fungus 2 days after application. The inoculated leaf segments were incubated at 20° C. and 65% rh under a light regime of 12 h light/12 h darkness in a climate cabinet and the activity of a compound was assessed as disease control compared to untreated when an appropriate level of disease damage appears in untreated check leaf segments (5-7 days after application).

[9] = system: Blumeria graminis f. Sp. tritici (Erysiphe graminis f. sp. tritici); assay: Fungicidal activity against Blumeria graminis f. sp. tritici / wheat / leaf disc preventative (powdery mildew on wheat); type: in vivo; conditions: foliar, wheat leaf segments, inoculated 1 day after application, compared to untreated, read-out: disease control
Description: Fungicidal Activity Against Blumeria graminis f. Sp. tritici (Erysiphe graminis f. sp. tritici)/Wheat/Leaf Disc Preventative (Powdery Mildew on Wheat)
Wheat leaf segments cv. Kanzler were placed on agar in a multiwell plate (24-well format) and sprayed with the formulated test compound diluted in water. The leaf disks were inoculated by shaking powdery mildew infected plants above the test plates 1 day after application. The inoculated leaf disks were incubated at 20° C. and 60% rh under a light regime of 24 h darkness followed by 12 h light/12 h darkness in a climate chamber and the activity of a compound was assessed as percent disease control compared to untreated when an appropriate level of disease damage appears on untreated check leaf segments (6-8 days after application).

CO/N=C1\CC(C)(C)Cc2nc(-c3cccc(Cc4ccccc4)n3)ncc21 [Compound 23]
≥ 80%: inhibition at 200 ppm [1] | inhibition at 200 ppm [2] | inhibition at 200 ppm [3] | inhibition at 200 ppm [4] | inhibition at 200 ppm [5] | inhibition at 200 ppm (Gaeumannomyces graminis)

CO/N=C1\CCCc2nc(-c3cccc(Cc4ccccc4Cl)n3)ncc21 [Compound 24]
≥ 80%: inhibition at 200 ppm [1] | inhibition at 200 ppm [2] | inhibition at 200 ppm [3] | inhibition at 200 ppm [4] | pest or weed control at 200 ppm [6] | inhibition at 200 ppm [7] | pest or weed control at 200 ppm [8] | inhibition at 200 ppm [5] | inhibition at 200 ppm (Gaeumannomyces graminis)

c1ccc(Cc2cccc(-c3ncc4c(n3)C3CCC4C3)n2)cc1 (stereo not shown) [Compound 26]
≥ 80%: inhibition at 200 ppm [1] | inhibition at 200 ppm [2] | inhibition at 200 ppm [3] | inhibition at 200 ppm [4] | pest or weed control at 200 ppm [6] | pest or weed control at 200 ppm (Pyrenophora teres) | inhibition at 200 ppm [7] | pest or weed control at 200 ppm [9] | pest or weed control at 200 ppm [8] | inhibition at 200 ppm [5] | inhibition at 200 ppm (Gaeumannomyces graminis)

CO/N=C1\CCCc2nc(-c3cccc(Cc4ccccc4OC)n3)ncc21 [Compound 27]
≥ 80%: inhibition at 200 ppm [1] | inhibition at 200 ppm [2] | inhibition at 200 ppm [3] | inhibition at 200 ppm [4] | pest or weed control at 200 ppm [6] | pest or weed control at 200 ppm (Pyrenophora teres) | pest or weed control at 200 ppm [9] | pest or weed control at 200 ppm [8] | inhibition at 200 ppm [5] | inhibition at 200 ppm (Gaeumannomyces graminis)

Clc1ccccc1Cc1cccc(-c2ncc3c(n2)OCCO3)n1 [Compound 28]
≥ 80%: inhibition at 200 ppm [1] | inhibition at 200 ppm [2] | inhibition at 200 ppm [3] | inhibition at 200 ppm [4] | pest or weed control at 200 ppm [6] | pest or weed control at 200 ppm (Pyrenophora teres) | inhibition at 200 ppm [7] | pest or weed control at 200 ppm [9] | pest or weed control at 200 ppm [8] | inhibition at 200 ppm [5] | inhibition at 200 ppm (Gaeumannomyces graminis)

c1ccc(Cc2cccc(-c3ncc4c(n3)CCCCC4)n2)cc1 [Compound 29, 2-(6-Benzyl-pyridin-2-yl)-6,7,8,9-tetrahydro-5H-cycloheptapyrimidine]
≥ 80%: inhibition at 200 ppm [1] | inhibition at 200 ppm [2] | inhibition at 200 ppm [3] | inhibition at 200 ppm [4] | pest or weed control at 200 ppm [6] | pest or weed control at 200 ppm (Pyrenophora teres) | inhibition at 200 ppm [7] | pest or weed control at 200 ppm [9] | pest or weed control at 200 ppm [8] | inhibition at 200 ppm [5] | inhibition at 200 ppm (Gaeumannomyces graminis)

Cc1ccc(Cc2cccc(-c3ncc4c(n3)CCCCC4)n2)cc1 [Compound 30]
≥ 80%: inhibition at 200 ppm [1] | inhibition at 200 ppm [2] | inhibition at 200 ppm [3] | inhibition at 200 ppm [4] | pest or weed control at 200 ppm [6] | pest or weed control at 200 ppm (Pyrenophora teres) | inhibition at 200 ppm [7] | pest or weed control at 200 ppm [9] | pest or weed control at 200 ppm [8] | inhibition at 200 ppm [5] | inhibition at 200 ppm (Gaeumannomyces graminis)

Cc1cccc(Cc2cccc(-c3ncc4c(n3)CCCCC4)n2)c1 [Compound 31]
≥ 80%: inhibition at 200 ppm [3] | inhibition at 200 ppm [4] | pest or weed control at 200 ppm [6] | pest or weed control at 200 ppm (Pyrenophora teres) | inhibition at 200 ppm [7] | pest or weed control at 200 ppm [9] | pest or weed control at 200 ppm [8] | inhibition at 200 ppm [5] | inhibition at 200 ppm (Gaeumannomyces graminis)

Cc1ccccc1Cc1cccc(-c2ncc3c(n2)CCCCC3)n1 [Compound 32]
≥ 80%: inhibition at 200 ppm [1] | inhibition at 200 ppm [2] | inhibition at 200 ppm [3] | inhibition at 200 ppm [4] | pest or weed control at 200 ppm [6] | pest or weed control at 200 ppm (Pyrenophora teres) | inhibition at 200 ppm [7] | pest or weed control at 200 ppm [9] | pest or weed control at 200 ppm [8] | inhibition at 200 ppm [5] | inhibition at 200 ppm (Gaeumannomyces graminis)

COc1ccccc1Cc1cccc(-c2ncc3c(n2)CCCCC3)n1 [Compound 34]
≥ 80%: inhibition at 200 ppm [1] | inhibition at 200 ppm [2] | inhibition at 200 ppm [3] | inhibition at 200 ppm [4] | pest or weed control at 200 ppm [6] | pest or weed control at 200 ppm (Pyrenophora teres) | inhibition at 200 ppm [7] | pest or weed control at 200 ppm [9] | pest or weed control at 200 ppm [8] | inhibition at 200 ppm [5] | inhibition at 200 ppm (Gaeumannomyces graminis)

Cc1ccc(Cc2cccc(-c3ncc4c(n3)CC(C)(C)CC4)n2)cc1 [Compound 36]
≥ 80%: inhibition at 200 ppm [1] | inhibition at 200 ppm [2] | inhibition at 200 ppm [3] | inhibition at 200 ppm [4] | pest or weed control at 200 ppm (Pyrenophora teres) | inhibition at 200 ppm [7] | pest or weed control at 200 ppm [9] | pest or weed control at 200 ppm [8] | inhibition at 200 ppm [5] | inhibition at 200 ppm (Gaeumannomyces graminis)

COc1ccc(Cc2cccc(-c3ncc4c(n3)CCCCC4)n2)cn1 [Compound 39, 2-[6-(6-Methoxy-pyridin-3-ylmethyl)-pyridin-2-yl]-6,7,8,9-tetrahydro-5H-cycloheptapyrimidine]
≥ 80%: inhibition at 200 ppm [3] | inhibition at 200 ppm [4] | pest or weed control at 200 ppm [6] | pest or weed control at 200 ppm (Pyrenophora teres) | pest or weed control at 200 ppm [9] | pest or weed control at 200 ppm [8] | inhibition at 200 ppm [5] | inhibition at 200 ppm (Gaeumannomyces graminis)

COc1ccc(C(C)c2cccc(-c3ncc4c(n3)CC(C)(C)CC4)n2)cn1 (stereo not shown) [Compound 43]
≥ 80%: inhibition at 200 ppm [1] | inhibition at 200 ppm [2] | inhibition at 200 ppm [3] | inhibition at 200 ppm [4] | pest or weed control at 200 ppm (Pyrenophora teres) | pest or weed control at 200 ppm [9] | pest or weed control at 200 ppm [8] | inhibition at 200 ppm [5] | inhibition at 200 ppm (Gaeumannomyces graminis)
